Data as given in PubChem BioAssay (NCI).
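Exposure lasted 48 hours, with cells grown in 96-well plates and compounds tested at five concentrations. Here, GI50 denotes the concentration required for 50% inhibition of growth. TGI: total growth inhibition.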 *1 amine or outer side, *2 acyl side, *3 side chain or, on linkers, in order; H or OH if unused. Where a SMILES comes first, the peptide text is derived from it. CO = O=C([*:1])[*:2]

Experiments:
Test in all cases: NCI anticancer screen, dose series, 48 h
HCT-15 colon = system: HCT-15 colon
K-562 leukemia = system: K-562 leukemia
NCI-H226 lung = system: NCI-H226 lung
NCI-H23 lung = system: NCI-H23 lung
RPMI-8226 leukemia = system: RPMI-8226 leukemia
SK-MEL-28 melanoma = system: SK-MEL-28 melanoma
SR leukemia = system: SR leukemia
NCI-H460 lung = system: NCI-H460 lung
T-47D breast = system: T-47D breast
MDA-MB-231 breast = system: MDA-MB-231 breast

Row | Compound | TGI (HCT-15 colon) [µM] | TGI (K-562 leukemia) [µM] | TGI (NCI-H226 lung) [µM] | TGI (NCI-H23 lung) [µM] | TGI (RPMI-8226 leukemia) [µM] | TGI (SK-MEL-28 melanoma) [µM] | TGI (SR leukemia) [µM] | TGI (NCI-H460 lung) [µM] | GI50 (HCT-15 colon) [µM] | GI50 (NCI-H460 lung) [µM] | GI50 (K-562 leukemia) [µM] | GI50 (T-47D breast) [µM] | TGI (T-47D breast) [µM] | GI50 (MDA-MB-231 breast) [µM] | TGI (MDA-MB-231 breast) [µM] | GI50 (NCI-H226 lung) [µM] | GI50 (RPMI-8226 leukemia) [µM] | GI50 (SK-MEL-28 melanoma) [µM] | GI50 (NCI-H23 lung) [µM] | GI50 (SR leukemia) [µM]
1 | O=C1CC(c2ccccc2)NCN1 (centres undefined) | > 100 | > 100 | > 100 | > 100 | > 100 | > 100 | > 100 | – | – | – | – | – | – | – | – | – | – | – | – | –
2 | NC(=S)N/N=C1\C(=O)N(c2cccc([N+](=O)[O-])c2)C(=O)C1C(=O)Nc1cccc([N+](=O)[O-])c1 (centres undefined) | > 100 | > 100 | > 100 | > 100 | > 100 | > 100 | – | – | – | – | – | – | – | – | – | – | – | – | – | –
3 | CO/C=C/c1cc2c(cc1C(OC)OC)OCO2 | – | > 100 | > 100 | > 100 | – | > 100 | > 100 | > 100 | – | – | – | – | – | – | – | – | – | – | – | –
4 | N#Cc1c(C(N)=O)ncn1Cc1ccccc1 | > 100 | > 100 | > 100 | > 100 | > 100 | – | – | > 100 | – | – | – | – | – | – | – | – | – | – | – | –
5 | COc1ccc2c(c1)C(=O)c1c-2c(N2CCN(C(=O)CN(C)C)CC2)nc2ccccc12 | 32.3 | > 100 | > 100 | – | 28.6 | 3.16 | – | 20.6 | 14.4 | 6.01 | 9.17 | 16.2 | 34.1 | 13.3 | 28.9 | 35.7 | 10.7 | 1.29 | – | –
6 | Cn1cc(C(=O)/C(Cl)=C(\Cl)C(=O)O)c2ccccc21 | > 100 | > 100 | > 100 | > 100 | > 100 | > 100 | – | > 100 | – | – | – | – | – | – | – | – | – | – | – | –
7 | CCCCCCCCO/N=C\c1c2c(O)c3c(O)c(C)c4c(c3c1O)C(=O)C(C)(O/C=C\C(OC)C(C)C(OC(C)=O)C(C)C(O)C(C)C(O)C(C)/C=C\C=C(\C)C(=O)N2)O4 (centres undefined) | 6.81 | – | 9.71 | 6.55 | 8.43 | 4.17 | – | 2.14 | 1.79 | 0.998 | – | 2.06 | 7.45 | 1.63 | 5.91 | 2.05 | 2.21 | 1.37 | 1.74 | –
8 | COc1ccc(C(=O)c2ccc(OC)cc2OC)cc1 | > 100 | > 100 | – | > 100 | 18.7 | > 100 | > 100 | 89.5 | 3.66 | 3.74 | 0.935 | 3.09 | > 100 | 6.6 | 90.2 | – | 3.18 | 4.05 | 3.79 | 0.891
9 | Cc1ccc(NC(=O)/C(=N/NC(=O)CC#N)C2C(=O)N(c3ccccc3)N=C2N)cc1C (centres undefined) | > 100 | > 100 | > 100 | > 100 | > 100 | > 100 | > 100 | > 100 | – | – | – | – | – | – | – | – | – | – | – | –
10 | COC1=CC(C)C2C[C@H]3O[C@H](O)C[C@H]4C(C)C(=O)C(O)C([C@@]2(C)C1=O)[C@@]34C (some centres undefined) | > 100 | > 100 | > 100 | > 100 | > 100 | > 100 | – | > 100 | – | – | – | – | – | – | – | – | – | – | – | –
11 | Cc1cccc(Oc2ccc(Nc3ncnc4ccc(NC(=O)CN5CCN(C)CC5)cc34)cc2Cl)c1 | 2.76 | 4.33 | – | 3.49 | 4.39 | 3.2 | 5.32 | 3.28 | 1.35 | 1.75 | 1.61 | – | – | 1.66 | 3.17 | – | 1.76 | 1.74 | 1.74 | 1.72
12 | CC(C)C(NC(=O)C(CCCN=C(N)N)NC(=O)NC(Cc1ccccc1)C(=O)O)C(=O)NC(C=O)CCCN=C(N)N (stereo not drawn) ({Phe-CO}-Arg-Val-Arg-aldehyde; configuration not given here) | > 5 | > 5 | > 5 | > 5 | – | > 5 | – | > 5 | > 5 | > 5 | > 5 | > 5 | > 5 | > 5 | > 5 | > 5 | – | > 5 | > 5 | –
13 | CC1(C)OC(=O)C=C(O)O1.CC1(C)OC(=O)C=C(O)O1.CCO.Oc1ccc2c(c1)CCC2.[Ti] | > 100 | > 100 | > 100 | > 100 | > 100 | > 100 | – | > 100 | > 100 | > 100 | > 100 | – | – | – | – | > 100 | > 100 | > 100 | > 100 | –
14 | O=C(CC1(O)C(=O)Nc2ccccc21)c1ccc(O)cc1O (centres undefined) | > 100 | > 100 | > 100 | > 100 | > 100 | > 100 | – | > 100 | – | – | – | – | – | – | – | – | – | – | – | –
15 | CCSc1nc(=S)[nH]c2[nH]ncc12 | > 100 | > 100 | > 100 | > 100 | > 100 | > 100 | – | > 100 | > 100 | > 100 | > 100 | 86.1 | > 100 | > 100 | > 100 | 70.6 | > 100 | > 100 | > 100 | –
16 | N#C/C(=C\c1ccc(Br)cc1)n1nnc2cc(F)c(F)cc21 | 2.93 | > 100 | 4.99 | 3.44 | 4.76 | 3.63 | – | 3.98 | 1.34 | 1.96 | 2 | 1.27 | 4.08 | 2.23 | 5.92 | 2.17 | 2.01 | 1.84 | 1.76 | –
17 | CCC[C@H](Nc1nc(-c2ccc(NC(=O)NCC)c(OC)c2)ncc1C)c1cccnc1 | > 42.5 | 16.4 | 25.7 | 6.93 | 15.1 | > 61.6 | 1.71 | 13.3 | 0.112 | 0.0357 | 0.031 | – | – | 0.0372 | 1.72 | 0.0531 | 0.037 | 1.14 | 0.0444 | 0.03
